Experimental data reported in PMC5308787, “Isoprenoid-phospholipid conjugates as potential therapeutic agents: Synthesis, characterization and antiproliferative studies” (PLoS ONE, 2017).

Assays:
[1] = system: drug resistant LOVO/DX line vs drug sensitive LoVo line; test: Resistance index (RI): IC50 LOVO/DX divided by IC50 LoVo; assay type: cell-based, human; settings: RI = IC50 resistant line / IC50 non-resistant line; 0<RI<2 able to overcome drug resistance; 2<RI<10 moderate ability; RI>10 no influence
Excerpt: (§1) The results of antiproliferative activity were given as IC50 values. Using this parameter we calculated also the resistance indexes (RI) dividing the IC50 values of selected compounds estimated for drug resistant cell LOVO/DX line by respective values designated for drug sensitive LoVo line. According to Harker et al. three categories of the cells could be distinguished: (a) the cells are drug-sensitive—if the ratio approaches 0–2; (b) the cells are moderately drug-resistant—if the ratio ranges from 2 to 10; (c) the cells are markedly drug-resistant—if the ratio is higher than 10.

MCF-7 (breast cancer) = test: Antiproliferative SRB assay, 72 h exposure; assay type: cell-based, human; settings: n.a. = no activity in concentration of 5, 25, 125, 625 μM
Procedure: (§2) The biological studies were performed in vitro using human cancer cell lines: MV4-11 (human biphenotypic B myelomonocytic leukaemia), A-549 (non-small cell lung cancer), MCF-7 (breast cancer), LoVo (colon cancer), LoVo/DX (colon cancer drug resistant), HepG2 (liver cancer) and BALB/3T3 (normal mice fibroblasts). These lines were obtained from American Type Culture Collection (Rockville, Maryland, U.S.A.). The cell line is being maintained in the Institute of Immunology and Experimental Therapy, Wroclaw, Poland. All cell lines were grown at 37°C with 5% CO2 humidified atmosphere and were cultured in cultured medium according to the method described before.
(§3) Prior to usage, the compounds were dissolved in DMSO or in mixture of 99.8% ethanol and DMSO (1:1) to the concentration of 25 or 50 mM, and subsequently diluted in culture medium to reach the required concentrations (ranging from 5 to 625 μM).
(§4) Twenty-four hours prior to the addition of tested compounds, the cells were plated in 96-well plates (Sarstedt, Germany) at a density of 1 × 10^4 cells per well in 100 μL of culture medium. The assay was performed after 72 h of exposure to varying concentrations of the tested agents. The in vitro cytotoxic effect of tested agents was examined using the MTT (for MV4-11 cells) or SRB assay which were described previously. Each compound in each concentration was tested in triplicate in a single experiment, which was repeated 3–5 times.
as §1

HepG2 (liver cancer) = test: Antiproliferative SRB assay, 72 h exposure; assay type: cell-based, human; settings: n.a. = no activity in concentration of 5, 25, 125, 625 μM
Procedure: as §2, §3, §4, §1

LoVo (colon cancer) = test: Antiproliferative SRB assay, 72 h exposure; assay type: cell-based, human; settings: SRB, 72 h, mean ± SD of 3–5 experiments, n.a. = no activity in concentration of 5, 25, 125, 625 μM
Procedure: as §2, §3, §4, §1

[2] = system: A-549 (non-small cell lung cancer); test: Antiproliferative SRB assay, 72 h exposure; assay type: cell-based, human; settings: n.a. = no activity in concentration of 5, 25, 125, 625 μM
Procedure: as §2, §3, §4, §1

[3] = system: LoVo/DX (colon cancer drug resistant); test: Antiproliferative SRB assay, 72 h exposure; assay type: cell-based, human; settings: mean ± SD of 3–5 experiments, n.a. = no activity in concentration of 5, 25, 125, 625 μM
Procedure: as §2, §3, §4, §1

[4] = system: BALB/3T3 (normal mice fibroblasts); test: Antiproliferative SRB assay, 72 h exposure; assay type: cell-based; settings: n.a. = no activity in concentration of 5, 25, 125, 625 μM
Procedure: as §2, §3, §4, §1

[5] = system: MV4-11 (human biphenotypic B myelomonocytic leukaemia); test: Antiproliferative MTT assay, 72 h exposure; assay type: cell-based
Procedure: as §2, §3, §4, §1

[6] = Homo sapiens, MCF7, mean ± SD of 3–5 experiments
[7] = Homo sapiens, HepG2, mean ± SD of 3–5 experiments
[8] = Homo sapiens, A549, mean ± SD of 3–5 experiments
[9] = Mus musculus, BALB/3T3, mean ± SD of 3–5 experiments
[10] = Homo sapiens, MV4-11, mean ± SD of 3–5 independent experiments

| SMILES | Resistance index (RI) [1] | IC50 (MCF-7 (breast cancer); [6]) [µM] | IC50 (HepG2 (liver cancer); [7]) [µM] | IC50 (LoVo (colon cancer); Homo sapiens, LoVo) [µM] | IC50 [2, 8] [µM] | IC50 ([3]; Homo sapiens, LoVo/DX) [µM] | IC50 [4, 9] [µM] | IC50 [5, 10] [µM] | also measured |
| --- | --- | --- | --- | --- | --- | --- | --- | --- | --- |
| COc1cccc2c1C(=O)c1c(O)c3c(c(O)c1C2=O)C[C@@](O)(C(=O)CO)C[C@@H]3O[C@H]1C[C@H](N)[C@H](O)[C@H](C)O1 [Doxorubicin, doxorubicin, reference compound] | 55.81 |  |  |  |  |  |  |  |  |
| CCC/C=C1/C(C)(C)CCCC1(C)CC(=O)OC[C@H](COP(=O)([O-])OCC[N+](C)(C)C)OC(=O)CCCCCCCCCCCCCCC (stereo partly drawn) [Compound 9c, (2’R)-1’-{2-[(3R,2"E)-2"-butylidene-1",3",3"-trimethyl]cyclohexyl}acetyl-2’-palmitoyl-sn-glycero-3’-phospocholine + (2’R)-1’-{2-[(3S,2"E)-2"-butylidene-1",3",3"-trimethyl]cyclohexyl}acetyl-2’-palmitoyl-sn-glycero-3’-phospocholine] |  | 102 ± 11.2 | 303 ± 77.6 | 61.5 ± 4.84 | 68.3 ± 1.5 | 75.5 ± 8.1 | 292 ± 41.5 | 50 ± 9 |  |
| C=CC(C)(CC/C=C(\C)CCC=C(C)C)CC(=O)OC[C@H](COP(=O)([O-])OCC[N+](C)(C)C)OC(=O)CCCCCCCCCCCCCCC (some centres unmarked) [Compound 9b] |  | 489 ± 57.7 |  | 269 ± 29.9 |  | 537 ± 61.2 |  | 299 ± 39.3 |  |
| N.N.[Cl][Pt][Cl] [Cisplatin, cisplatin, reference compound] |  |  |  |  |  |  |  |  | IC50 (MCF-7 (breast cancer); mean ± SD of 3–5 experiments): 8.1 ± 0.03 µM; IC50 (HepG2 (liver cancer); mean ± SD of 3–5 experiments): 2.38 ± 0.64 µM; IC50 (LoVo (colon cancer)): 2.56 ± 0.35 µM; IC50 ([2]; mean ± SD of 3–5 experiments): 8.6 ± 0.7 µM; IC50 [3]: 3.17 ± 0.2 µM; IC50 ([4]; mean ± SD of 3–5 experiments): 4.2 ± 1.1 µM; IC50 ([5]; mean ± SD of 3–5 independent experiments): 1.3 ± 0.47 µM |
| CCCCCCCCCCCCCCCC(=O)O [Palmitic acid, reference compound] |  | 123 ± 63.4 | 275 ± 85.2 | 42.1 ± 4.6 | 56.4 ± 1.6 | 86.3 ± 21.3 | 60.4 ± 4 | 161 ± 78.9 |  |
| C=CC(C)(CCC=C(C)C)CC(=O)O (centres unmarked) [1 (GERA), 3,7-dimethyl-3-vinyloct-6-enoic acid] | 0.85 | 310 ± 84 | 517 ± 98.3 | 329 ± 54.5 | 301 ± 66.9 | 281 ± 13.6 |  | 256 ± 86.1 |  |
| C=CC(C)(CCCC(C)CCCC(C)CCCC(C)C)CC(=O)OC[C@H](COP(=O)([O-])OCC[N+](C)(C)C)OC(=O)CC(C)(C=C)CCCC(C)CCCC(C)CCCC(C)C (some centres unmarked) [Compound 6d] |  |  |  |  |  |  |  | 42.4 ± 9.52 |  |
| CCC/C=C1/C(C)(C)CCCC1(C)CC(=O)OC[C@@H](O)COP(=O)([O-])OCC[N+](C)(C)C (stereo partly drawn) [Compound 8c, (2’R)-1’-{2-[(3R,2"E)-2"-butylidene-1",3",3"-trimethyl]cyclohexyl}acetyl-2’-hydroxy-sn-glycero-3’-phospocholine + (2’R)-1’-{2-[(3S,2"E)-2"-butylidene-1",3",3"-trimethyl]cyclohexyl}acetyl-2’-hydroxy-sn-glycero-3’-phospocholine] | 1.23 | 470 ± 52.9 |  | 284 ± 9.7 |  | 382 ± 32.4 |  | 203 ± 15 |  |
| C=CC(C)(CCCC(C)CCCC(C)CCCC(C)C)CC(=O)O[C@H](COC(=O)CCCCCCCCCCCCCCC)COP(=O)([O-])OCC[N+](C)(C)C (some centres unmarked) [Compound 7d] |  |  |  |  |  |  |  | 259 ± 32.5 |  |
| CCC/C=C1/C(C)(C)CCCC1(C)CC(=O)OC[C@H](COP(=O)([O-])OCC[N+](C)(C)C)OC(=O)CC1(C)CCCC(C)(C)/C1=C/CCC (stereo partly drawn) [Compound 6c, (2’R)-1’,2’-di{2-[(3R,2"E)-2"-butylidene-1",3",3"-trimethyl]cyclohexyl}acetyl-sn-glycero-3’-phospocholine + (2’R)-1’,2’-di{2-[(3S,2"E)-2"-butylidene-1",3",3"-trimethyl]cyclohexyl}acetyl-sn-glycero-3’-phospocholine] |  | 57.8 ± 2.6 | 56.7 ± 0.1 | 53.1 ± 3.6 | 52.3 ± 1.9 | 56.9 ± 0.2 | 57.3 ± 0.3 | 38.6 ± 11.1 |  |
